This is an account of results in patent US9658212B2, “Process for evaluating active agent(s) capable of preserving the functionality of epithelial stem cells” (L'OREAL, priority 2012, dated 2017).

The subject of assay [1] is gene encoding carbonic anhydrase IX. Briefly: Transcriptomic analysis (RT-qPCR) of the carbonic anhydrase IX gene in hair bulbs cultured ex vivo. The class given is cell-based, human. As to conditions: whole hair bulbs, 4 hours incubation, normoxic conditions (21% dioxygen), compared with hypoxic conditions (3% dioxygen). The text has this:
A second evaluation process may consist in carrying out a transcriptomic analysis of carbonic anhydrase IX, of which the expression of the corresponding gene is modified by a hypoxic signal, using the RT-qPCR technique, on keratin materials, for example on in vitro cultures of keratinocytes or hair bulbs isolated by microdissection and placed in culture ex vivo, under hypoxic conditions, and under normoxic conditions in the presence or absence of said active agent(s) to be tested, in order to study whether the active agent(s) is (are) capable of mimicking a hypoxic state.
This second process consists in carrying out a transcriptomic analysis of the gene encoding carbonic anhydrase IX, the expression of which is modified by a hypoxic signal, using the RT-qPCR technique, on hair bulbs isolated by microdissection at the level of the human scalp hypodermis and placed in culture ex vivo for 4 hours either under hypoxic conditions (3% dioxygen) or at 21% dioxygen, in the absence (control) or in the presence of diethyl pyridine-2,4 dicarboxylate.

In another assay the test system is HIF1-alpha protein. Put plainly: Western blotting of the level of expression/stabilization of the HIF1-alpha protein in outer sheath keratinocytes. The class given is cell-based, human. The following applies: keratinocyte cultures under normoxic conditions (21% oxygen). The text has this: This third example consists in carrying out an analysis of the level of expression/stabilization of the HIF1-alpha protein using the Western blotting technique as a basis. To summarise, under normoxic conditions, the HIF1-alpha protein is hydroxylated on a proline residue (reaction catalyzed by a prolyl hydroxylase), ubiquitinylated and then degraded by the proteasome. Under hypoxic conditions, the HIF1-alpha protein is not hydroxylated and its expression level is maintained. To characterize the effect of diethyl pyridine-2,4-dicarboxylate on the level of expression/stabilization of HIF1-alpha, a protein extract was prepared on cultures of keratinocytes derived from the outer sheath of human hair follicles maintained and placed in culture under hypoxic conditions or under normoxic conditions, in the absence or presence of diethyl pyridine-2,4-dicarboxylate. […] In this regard, it may be stated that the effect of diethyl pyridine-2,4-dicarboxylate under normoxic conditions mimics the effect of hypoxic conditions on the expression/stabilization of the HIF1-alpha protein.
A general note: A western blot detects proteins with antibodies after separation by electrophoresis.

Assay [2] has as its system keratinocytes from the outer sheath of human hair follicles. Briefly: CFE (Colony-forming efficiency) test for keratinocytes (including epithelial stem cells). The following applies: 21% dioxygen, 50 to 500 μM, 10 days culture. The class given is cell-based. The text has this:
It is possible to optionally add to these two evaluation processes a process aimed at establishing the impact of the active agent(s) capable of mimicking hypoxia on the quality of the epithelial stem cells. To do this, a CFE (Colony-forming efficiency) test can be carried out for keratinocytes (including epithelial stem cells), consisting in observing, respectively, under hypoxic conditions and under normoxic conditions in the presence or absence of active agent(s), the impact of the presence of the active agent(s) on the frequency of the cells capable of generating a cell clone within a given population, and also on the clonal morphology obtained, so as to thus establish their participation in the preservation of the functionality of the epithelial stem cells treated with the active agent(s). […]
Next, the cells of the outer epithelial sheath thus extracted from the hair follicles and dissected are subsequently seeded in a proportion of 1000 cells/culture dish under CFE conditions, on a layer of irradiated 3T3 fibroblasts. […] At the end of the clonogenic culture and after fixing (via 70% ethanol) and staining (incubation with eosin, rinsing and then incubation with BlueRAL 555) of the cell clones obtained, the morphology of the clones and of the cells making up these clones is analyzed.

Entries after “also recorded” stand apart in the source; their conditions may differ.

In the case of `CCOC(=O)c1ccnc(C(=O)OCC)c1` [diethyl pyridine-2,4-dicarboxylate], the “expression of carbonic anhydrase 9 (molecular profile)” value in assay [1] was “induces a molecular profile similar to that induced by hypoxia”. Moreover, in the assay with HIF1-alpha protein, the “level of expression/stabilization of the HIF1-alpha protein” value is on record as “induces an increase in the amount of protein detected”. Also, the number of clones entry in assay [2] (vs 21% dioxygen control conditions) was “does not significantly decrease”. The clonal morphology entry in assay [2] (vs untreated 21% dioxygen control) was “less diffuse and less dense than the controls; also recorded: generates clones similar to those obtained under hypoxic conditions”.
